One assay concerns HCC1806 and HT29 cells. Kind of assay: Autophagic flux (CYTO-ID). In kind it is cell-based, human. The conditions noted are these: single agent. How it is done:
Autophagic flux was measure using the CYTO-ID autophagy detection kit (Enzo Life Sciences ENZ-51031). HCC1806 and HT29 cells were seeded in 96 well plates the day before the experiment. […] Following treatment, cells were gently washed with assay buffer followed by addition of the dual color detection solution and incubation at 37° C. for 30 min. The plate was analyzed on a fluorescence microplane reader (BioTek Synergy 4).

The subject of a further assay is human CRC cell lines. Kind of assay: Follow-up viability screening (MultiTox Glo, sulforhodamine B). In kind it is cell-based. The conditions noted are these: four human CRC cell lines; 48 hrs; MultiTox Glo. How it is done: (§1) Viability was evaluated using a commercially available chemiluminescent reagents (CellTiter-Glo, Promega Corp. G7572; MultiTox Glo, Promega Corp. G9270) in 96-well plate format according to the manufacturers protocol. […] Subsequently, CellTiter-Glo reagent was added and the plates were read using a plate reader (BioTek Synergy 4) with standard settings. Each set of conditions was replicated at least three times, technically and biologically. Error is reported as standard deviation (SD). The sulforhodamine B assay was run analogously to the above assays as previously described^19.

In assay [1] the test system is pERK in HCC1806 and HT29 cells. The assay is described as follows: AlphaScreen SureFire pERK assay. It is filed as cell-based, human. The following applies: 48 h. How it is done: Detection of activated ERK in cell lysates was enabled by the AlphaScreen SureFire ERK assay (Perkin Elmer) according to the manufacturers protocol. Cells were plated in 96-well plates for 24 hours prior to the assay.
(Alpha assays give light when donor and acceptor beads are brought close together.)

Assay [2] relates to human CRC organoids A-007 and A-008. The assay is described as follows: Human CRC organoid viability assay. In kind it is cell-based. The conditions noted are these: V-9302 25 μM or CB-839 35 μM, 96 h. How it is done:
Human CRC-derived organoids were prepared as reported method with modification^41. Briefly, specimens from freshly resected tumors were minced and digested with 2 mg/ml type 2 collagenase (Worthington, N.J., USA). Samples were passed through 40 µm filters (Greiner Bio One, NC, USA) and epithelial cells trapped on the filters were embed in Matrigel (Corning, MA, USA) and cultured with advanced DMEM/F12 supplemented with N2 and B27 supplements (Thermo Fischer, MA, USA), 50 ng/ml rhEGF (R&D systems, MN, USA) and 1% antibiotic-antimycotic (Corning). For viability assay, organoids were dissociated by TrypLE express (Thermo Fischer) and suspended in Matrigel. […] After 4 days of culture, images of the organoids in Matrigel were captured and the number of viable cells were quantified with CellTiter Aqueous One Cell Proliferation Assay kit (Promega, WI, USA) and a Synergy 4 plate reader (BioTek, VT, USA). The assay was replicated at least three times, technically and biologically. Significance was calculated using a t-test in Graphpad Prism. Error is reported as standard deviation (SD).

In a further assay the test system is HT29 and HCT-116 cells. The assay is described as follows: Cell viability with or without chloroquine. It is filed as cell-based, human. The following applies: 48 h. How it is done: as §1
Another assay has as its system HT29 cells. The assay is described as follows: Glutathione and reactive oxygen species in HT29 cells. It is filed as cell-based, human. The following applies: 48 h. How it is done:
Glutathione levels were measured using a commercially available kit (Cayman Chemical 703002) according to the manufacturers protocol. Concurrently ROS was measured in cells using CM-H2DCFDA (Life Technologies C6827) coupled with flow cytometry in accordance with the manufacturers protocol. The assay was replicated replicated at least three times, technically and biologically. Significance was calculated using a t-test in Graphpad Prism. Error is reported as standard deviation (SD).

Assay [3] deals with ASCT2 (Homo sapiens (Human), UniProt Q15758). The assay is described as follows: Inhibition of ASCT2-mediated 3H-glutamine uptake in live HEK293 (human) cells. In kind it is cell-based.
ASCT2 (Homo sapiens (Human), UniProt Q15758), sequence (Q15758 whole entry): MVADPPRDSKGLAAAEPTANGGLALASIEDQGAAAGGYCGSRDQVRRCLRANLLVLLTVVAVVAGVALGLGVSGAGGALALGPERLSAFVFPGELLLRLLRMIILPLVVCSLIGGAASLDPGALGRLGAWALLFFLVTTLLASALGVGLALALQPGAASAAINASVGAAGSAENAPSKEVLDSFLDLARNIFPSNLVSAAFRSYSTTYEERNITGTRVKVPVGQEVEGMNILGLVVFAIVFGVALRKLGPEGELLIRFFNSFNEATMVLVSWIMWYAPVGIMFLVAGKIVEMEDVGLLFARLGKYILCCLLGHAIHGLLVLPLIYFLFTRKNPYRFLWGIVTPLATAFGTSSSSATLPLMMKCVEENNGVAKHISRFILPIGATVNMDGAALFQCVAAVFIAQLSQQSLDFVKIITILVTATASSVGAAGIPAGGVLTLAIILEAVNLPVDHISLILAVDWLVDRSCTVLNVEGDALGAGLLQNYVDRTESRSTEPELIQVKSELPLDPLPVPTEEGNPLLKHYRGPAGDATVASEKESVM
Experimental: Live-cell amino acid uptake assays using HEK293 cells were carried out in 96-well plates (CulturPlate-96, Perkin Elmer). 96-well plates were coated with poly-D-lysine prior to the assay. Cells were plated at a density of 35,000 cells per well 24 h prior to carrying out the assay. Each set of conditions was replicated at least three times, technically and biologically. […] For ASCT2-mediated ^3H-glutamine uptake assays, 5 mM of the system-L inhibitor 2-amino-2-norbornanecarboxylic acid (BCH) was added and the assay buffer was adjusted to pH 6.0. For selectivity studies, no BCH was added and the assay was conducted at pH 7.4. Following the incubation period, the ^3H-glutamine/inhibitor was removed and the cells were washed three times with assay buffer. The cells were then lysed by the addition of 50 μL of 1 M NaOH. For reading, 150 μL of scintillation fluid (Microscint 40, Perkin Elmer) was added and the plates were counted on a scintillation counter (Topcount, Perkin Elmer). Fifty percent inhibitory concentrations (IC50) were calculated using GraphPad Prism version 6 for Mac OS X, GraphPad Software, San Diego Calif. […] Error is reported as standard deviation (SD).
Assay [4] deals with ASCT2 (Rattus norvegicus (Rat), UniProt D3ZJ25). The assay is described as follows: Inhibition of ASCT2-mediated glutamine uptake in C6 (rat) cells. It is filed as cell-based. The conditions noted are these: for IC50: C6 (rat) cells, glutamine uptake, mean of at least 3 biological replicates; for preference for blocking glutamine transport in rat vs human cell line: C6 (rat) vs HEK293 (human).
ASCT2 (Rattus norvegicus (Rat), UniProt D3ZJ25), sequence (D3ZJ25 whole entry): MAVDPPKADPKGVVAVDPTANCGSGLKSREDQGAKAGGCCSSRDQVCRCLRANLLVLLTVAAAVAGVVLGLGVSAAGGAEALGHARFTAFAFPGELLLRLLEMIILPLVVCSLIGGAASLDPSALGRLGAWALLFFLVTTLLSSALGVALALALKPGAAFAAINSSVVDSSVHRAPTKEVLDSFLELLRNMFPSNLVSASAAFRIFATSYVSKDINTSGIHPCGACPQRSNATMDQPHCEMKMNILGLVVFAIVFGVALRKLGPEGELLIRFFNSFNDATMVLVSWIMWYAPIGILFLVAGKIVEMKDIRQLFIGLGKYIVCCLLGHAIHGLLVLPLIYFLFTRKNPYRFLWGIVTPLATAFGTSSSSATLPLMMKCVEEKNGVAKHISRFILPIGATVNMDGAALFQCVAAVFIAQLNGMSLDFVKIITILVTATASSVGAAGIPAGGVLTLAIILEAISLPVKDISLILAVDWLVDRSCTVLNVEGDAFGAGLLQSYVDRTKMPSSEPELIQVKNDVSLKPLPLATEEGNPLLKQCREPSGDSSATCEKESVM

In assay [5] the test system is ASCT2. The conditions noted are these: cited from earlier work.
For the next assay, the system named is HCC1806 cells. The assay is described as follows: Cell viability in HCC1806 cells. In kind it is cell-based. The conditions noted are these: Homo sapiens, exposure 48 hrs.
[6] abbreviates: HEK293 (human) cells, glutamine uptake, mean of at least 3 biological replicates, read-out: IC50 (human).

“Also recorded” adds a separate entry of the source. Read-outs that look alike come from different tables or passages of the source.

Take `O=C(Cc1cccc(OC(F)(F)F)c1)Nc1ccc(CCCCc2nnc(NC(=O)Cc3ccccn3)s2)nn1` [CB-839, reference compound]: the autophagic flux result with HCC1806 and HT29 cells is recorded as “did not lead to elevated autophagic flux”. The “EC50, cellular viability” value in the assay with human CRC cell lines is listed as “did not exhibit appreciable activity”. Also, in assay [1], the “pERK (independent biochemical assay)” value was “not observed”. For the same compound, the organoid viability result in assay [2] is reported as “not significantly affected”. Besides, in the assay on HT29 and HCT-116 cells, the “cell viability, single agent” value is on record as “did not decrease cell viability”. Also, the “GSSG levels and ROS” value with HT29 cells is given as “not observed”.

On to `COc1cccc(Oc2ccccc2CN(CC[C@@H](N)C(=O)O)Cc2ccccc2Oc2ccccc2OC)c1` [Compound 5], for which the IC50 (usually the concentration at which inhibition is half-maximal) on ASCT2 [3] (setting [6]) was 57.2 µM. Besides, at ASCT2 [4], inhibition was half-maximal at 1.3 µM (IC50) and the “preference for blocking glutamine transport in rat vs human cell line” value (“preference … vs human cell line” below) is “exhibited this preference”.

As for `COc1ccc(Oc2ccccc2CN(CC[C@@H](N)C(=O)O)Cc2ccccc2Oc2ccc(OC)cc2)cc1` [Compound 6], the half-maximal inhibitory concentration (IC50) at ASCT2 [3] (setting [6]) came to 11.9 µM. For the same compound, on ASCT2 [4], half-maximal inhibition (IC50) was put at 8.7 µM and the “preference … vs human cell line” value is recorded as “roughly equal potencies in both cells lines”.

`N[C@H](CCN(Cc1ccccc1Oc1cccc(Cl)c1)Cc1ccccc1Oc1cccc(Cl)c1)C(=O)O` [Compound 7]: the IC50 at ASCT2 [3] (setting [6]) is 26 µM.

As for `N[C@H](CCN(Cc1ccccc1Oc1ccccc1F)Cc1ccccc1Oc1ccccc1F)C(=O)O` [Compound 8], the IC50 at ASCT2 [3] (setting [6]) came out at 33.8 µM. Further, at ASCT2 [4], the IC50 was 1.8 µM and the “preference … vs human cell line” value is on record as “some preference for blocking glutamine transport in the rat cell line”.

In turn, `N[C@H](CCN(Cc1ccccc1Oc1cccc(F)c1)Cc1ccccc1Oc1cccc(F)c1)C(=O)O` [Compound 9] displayed an IC50 against ASCT2 [4] of 36.3 µM.

Consider `Cc1ccc(Oc2ccccc2CN(CC[C@@H](N)C(=O)O)Cc2ccccc2Oc2ccc(F)cc2)cc1` [Compound 10], for which the IC50 on ASCT2 [3] (setting [6]) was determined as 142 µM. Besides, on ASCT2 [4], the IC50 came out at 10.5 µM and the “preference … vs human cell line” value is on record as “some preference for blocking glutamine transport in the rat cell line”.

With `N[C@H](CCN(Cc1ccccc1Oc1ccccn1)Cc1ccccc1Oc1ccccn1)C(=O)O` [Compound 11], at ASCT2 [3] (setting [6]), the IC50 worked out at 59.6 µM. At ASCT2 [4], the IC50 was found to be 68.2 µM and the “preference … vs human cell line” value is “roughly equal potencies in both cells lines”.

For `COc1cccc(COc2ccccc2CN(CC[C@@H](N)C(=O)O)Cc2ccccc2OCc2cccc(OC)c2)c1` [Compound 12], the half-maximal inhibitory concentration (IC50) turned out to be 7.2 µM on ASCT2 [3] (setting [6]) and 5.1 µM against ASCT2 [4].

`N[C@H](CCN(Cc1ccccc1OCc1ccccc1Cl)Cc1ccccc1OCc1ccccc1Cl)C(=O)O` [Compound 13]: the IC50 on ASCT2 [3] (setting [6]) worked out at 40.1 µM; against ASCT2 [4], 18.4 µM.

For `N[C@H](CCN(Cc1ccccc1OCc1cccc(O)c1)Cc1ccccc1OCc1cccc(Cl)c1)C(=O)O` [Compound 14], the figures for the IC50 on ASCT2 [3] (setting [6]) and against ASCT2 [4] were 50.8 µM and 12.7 µM, respectively.

In the case of `N[C@H](CCN(Cc1ccccc1OCc1ccc(Cl)cc1)Cc1ccccc1OCc1ccc(Cl)cc1)C(=O)O` [Compound 15], the IC50 on ASCT2 [3] (setting [6]) turned out to be 33.7 µM; on ASCT2 [4] it was 20.1 µM.

For the compound `Cc1ccccc1COc1ccccc1CN(CC[C@@H](N)C(=O)O)Cc1ccccc1OCc1ccccc1C` [Compound 16], the IC50 on ASCT2 [3] (setting [6]) worked out at 25.6 µM; on ASCT2 [4] it was 41.7 µM.

`Cc1cccc(COc2ccccc2CN(CC[C@@H](N)C(=O)O)Cc2ccccc2OCc2cccc(C)c2)c1` [Compound 17] displayed an IC50 at ASCT2 [4] of 9 µM.

For `Cc1ccc(COc2ccccc2CN(CC[C@@H](N)C(=O)O)Cc2ccccc2OCc2ccc(C)cc2)cc1` [Compound 18], at ASCT2 [3] (setting [6]), the IC50 worked out at 17.5 µM. Also, at ASCT2 [4], inhibition was half-maximal at 86.4 µM (IC50) and the “preference … vs human cell line” value was “significant preference for inhibiting glutamine uptake in the human form of ASCT2”.

The compound `N[C@H](CCN(Cc1ccccc1OCc1ccccc1F)Cc1ccccc1OCc1ccccc1F)C(=O)O` [Compound 19] showed an IC50 at ASCT2 [4] of 3.3 µM.

On to `N[C@H](CCN(Cc1ccccc1OCc1ccc(F)cc1)Cc1ccccc1OCc1ccc(F)cc1)C(=O)O` [Compound 20], for which half-maximal inhibition at ASCT2 [4] (IC50) required 11.2 µM.

For the compound `N[C@H](CCN(Cc1ccccc1OCc1ccccn1)Cc1ccccc1OCc1ccccn1)C(=O)O` [Compound 21], the values for the IC50 at ASCT2 [3] (setting [6]) and against ASCT2 [4] were 48.3 µM and 8.4 µM, respectively.

In the case of `N[C@H](CCN(Cc1ccccc1OCc1cccnc1)Cc1ccccc1OCc1cccnc1)C(=O)O` [Compound 22], the IC50 at ASCT2 [3] (setting [6]) turned out to be 89.1 µM; against ASCT2 [4], 17.3 µM.

Consider `N[C@@H](CCC(=O)Nc1ccc([N+](=O)[O-])cc1)C(=O)O` [GPNA, L-γ-glutamyl-p-nitroanilide], for which the IC50 at ASCT2 [3] (live HEK-293 cells, read-out: IC50, inhibition of ASCT2-mediated glutamine uptake in human cells) stood at 1000 µM. Further, in the assay on ASCT2 [5], the “potency as ASCT2 inhibitor (previously reported)” value was “poor potency and selectivity in human cells; also recorded: modest potency in the low millimolar range”.

In the case of `NC(=O)CC[C@H](Nc1ccccc1CN1CCOCC1)C(=O)O` [N-(2-(morpholinomethyl)phenyl)-L-glutamine], the “activity against ASCT2 compared to GPNA (previously described)” value with ASCT2 [5] is listed as “three-fold improved activity”.

On to `N[C@@H](COC(=O)c1ccc(-c2ccccc2)cc1)C(=O)O` [O-(4-phenylbenzoyl)-L-serine], for which the Ki on ASCT2 [5] (Albers et al., read-out: apparent affinity) is 30 µM.

For `Cc1cccc(COc2ccccc2CN(Cc2ccccc2OCc2cccc(C)c2)C2CCN[C@H](C(=O)O)C2)c1` (stereo partly drawn) [WJB-A-110, (2S)-4-(Bis(2-((3-methylbenzyl)oxy)benzyl)amino)piperidine-2-carboxylic Acid], the IC50 in the assay on HCC1806 cells was 32 µM.

The compound `Cc1cccc(COc2ccccc2CN(Cc2ccccc2OCc2cccc(C)c2)C2CN[C@H](C(=O)O)C2)c1` (stereo partly drawn) [WJB-A-119, (2S)-4-(Bis(2-((3-methylbenzyl)oxy)benzyl)amino)pyrrolidine-2-carboxylic Acid] returned an IC50 with HCC1806 cells of 23 µM.

Source of the values: US10793514B2, “Glutamine transport inhibitors and methods for treating cancer” (Vanderbilt University, priority 2016, dated 2020).
